Measurements as given in patent US11432549B2, “Carbamoyl triazolinone based herbicide combinations and method of use” (Arysta LifeScience Corporation, priority 2009, dated 2022).

Assays:
Cyperus esculentus = test: Ex 2 pre-emergence, visual % damage; format: in vivo; settings: kg/ha: Amicarbazone 1.5, Clomazone/Hexazinone 2.0, mixture 1.5 + 2.0
Source text: DINAMIC® (amicarbazone) and Discover (clomazone 400 g/kg+hexazinone 100 g/kg) alone or in combination were applied pre-emergence in this study. The formulations for DINAMIC® and Discover were 700 g active ingredient a.i./kg and 500 g active ingredient a.i/kg respectively.
The herbicidal effect was observed by comparing the extent of Cyperus esculentus treated with the compounds against that occurring in similar non-treated control. Herbicidal effect was visually assessed and recorded at 27, 43, 46, 60, 63, 77, 83, 97 and 124 days after treatment (DAT). Damage by the herbicidal compositions was evaluated with reference to a scale of 0% to 100% in comparison with untreated control. 0% means no damage and 100% means complete destruction of the plants.
The theoretical herbicidal effect index were calculated based on Colby and the values were indicated in bracket ( ) in Table 2-1. The herbicidal mixtures (amicarbazone+(clomazone/hexazinone)) exert a greater herbicidal action than expected according to Colby on the basis of the observed effects of the individual components when used alone. […] The underlined values in the table indicate that the observed weed killing is greater than calculated from the Colby formula and therefore indicates a synergistic weed killing effect or activity.

[1] = test system: Croton glandulosus (CROTON); test: Ex 4 pre-emergence, visual % damage; format: in vivo; settings: kg/ha or L/ha: Amicarbazone 1.50, Gesapax 5.00, Karmex 5.00, Provence 0.20, Sencor 3.50, alone
Description: DINAMIC® (amicarbazone) in combination of various herbicides listed in Table 4-1 were tested for herbicidal activity.
The herbicidal effect was observed by comparing the extent of Croton glandulosus (CROTON) treated with the compounds against that occurring in similar non-treated control. Herbicidal effect was visually assessed and recorded at 14, 23, 36, 49, 65 and 77 days after treatment (DAT). Damage by the herbicidal compositions was evaluated with reference to a scale of 0% to 100% in comparison with untreated control. 0% means no damage and 100% means complete destruction of the plants. […] The theoretical herbicidal effect index were calculated based on Colby and the values were indicated in bracket (2). Some of the observed herbicidal effects were the same as the theoretical hervicidal effects, which indicate additive effects. The underlined values in the table indicate that the observed weed killing is greater than calculated from the Colby formula and therefore indicates a synergistic weed killing effect or activity.

## CC(C)c1nn(C(=O)NC(C)(C)C)c(=O)n1N [Amicarbazone, 4-amino-5-isopropyl-2-(tert-butyl-aminocarbonyl)-2,4-dihydro-3H-1,2,4-triazol-3-one]
Cyperus esculentus; Trial 1, 43 DAT
  percentage control: 40%
Cyperus esculentus; Trial 1, 63 DAT
  percentage control: 62%
Cyperus esculentus; Trial 1, 77 DAT
  percentage control: 65%
Cyperus esculentus; Trial 2, 27 DAT
  percentage control: 37%
Cyperus esculentus; Trial 2, 46 DAT
  percentage control: 53%
Cyperus esculentus; Trial 2, 60 DAT
  percentage control: 57%
Cyperus esculentus; Trial 2, 83 DAT
  percentage control: 68%
Cyperus esculentus; Trial 2, 97 DAT
  percentage control: 53%
Cyperus esculentus; Trial 2, 124 DAT
  percentage control: 23%
[1]; 14 DAT
  percentage control: 100%
[1]; 23 DAT
  percentage control: 99%
[1]; 36 DAT
  percentage control: 99%
[1]; 49 DAT
  percentage control: 99%
[1]; 65 DAT
  percentage control: 99%
[1]; 77 DAT
  percentage control: 99%
